Columns and labels:
Assay type in all cases: cell-based
[1] = test system: NCI-H292 cells; experiment: CellTiter-Glow cell viability, lung carcinoma NCI-H292; conditions: Homo sapiens, 72 h, read-out: % Inh @2 μM NCI-H292
Method: (§1) Antitumor activity of the compounds and cisplatin as a positive control was assessed by using CellTiter-Glow® Luminescent Cell Viability assay (Promega #G7572) according to the manufacturer's instructions. The compounds were tested at 2 concentrations, 2 and 20 μM, in triplicate well conditions.
(§2) Tumor cells were grown at 37° C. in a humidified atmosphere with 5% CO2 in RPMI 1640 or DMEM medium, supplemented with 10% (v/v) fetal calf serum and 50 μg/ml gentamicin for up to 20 passages, and were passaged once or twice weekly. Cells were harvested using TrypLE or PBS buffer containing 1 mM EDTA, and the percentage of viable cells is determined using a cell counter.
(§3) Cells were harvested from exponential phase cultures, counted and plated in 96 well flat-bottom microtiter plates at a cell density depending on the cell line's growth rate (4,000-20,000 cells/well depending on the cell line's growth rate, up to 60,000 for hematological cancer cell lines) in RPMI 1640 or DMEM medium supplemented with 10% (v/v) fetal calf serum and 50 μg/ml gentamicin (140 μl/well). Cultures were incubated at 37° C. and 5% CO2 in a humidified atmosphere. After 24 h, 10 μl of test compounds or control medium are added and left on the cells for another 72 h.
(§4) Compounds were serially diluted in DMSO, transferred in cell culture medium, and added to the assay plates. The DMSO concentration was kept constant at <0.2% v/v across the assay plate. Viability of cells was quantified by CellTiter-Glow® Luminescent Cell Viability assay (Promega). Luminescence was measured with the microplate luminometer (EnVision Multi Label Reader).

[2] = test system: DMS114 cells; experiment: CellTiter-Glow cell viability, lung carcinoma DMS114; conditions: Homo sapiens, DMS-114, 72 h, read-out: growth inhibition of lung carcinoma cells DMS114
Method: as §1, §2
as §3, with “Cultures were incubated at 37° C. and 5% CO2 in a humidified atmosphere. After 24 h, 10 μl of test compounds or control medium are added and left on the cells for another 72 h.” left out
(§5) Compounds were serially diluted in DMSO, transferred in cell culture medium, and added to the assay plates. […] Viability of cells was quantified by CellTiter-Glow® Luminescent Cell Viability assay (Promega). Luminescence was measured with the microplate luminometer (EnVision Multi Label Reader).

[3] = test system: NAWALMA cells; experiment: CellTiter-Glow cell viability, lymphoma NAWALMA; conditions: 72 h, read-out: % Inh @2 μM NAWALMA
Method: as §1, §2, §3, §4

[4] = test system: H118MG cells; experiment: CellTiter-Glow cell viability, brain carcinoma cells H118MG; conditions: 72 h, read-out: growth inhibition of brain carcinoma cells H118MG
Method: as §1, §2
as §3, with “Cultures were incubated at 37° C. and 5% CO2 in a humidified atmosphere. After 24 h, 10 μl of test compounds or control medium are added and left on the cells for another 72 h.” left out
as §5

[5] = test system: SK-N-SH cells; experiment: CellTiter-Glow cell viability, brain carcinoma SK-N-SH; conditions: Homo sapiens, 72 h, read-out: % Inh @2 μM SK-N-SH
Method: as §1, §2, §3, §4

[6] = test system: K562 cells; experiment: CellTiter-Glow cell viability, leukemia K562; conditions: Homo sapiens, 72 h, read-out: % Inh @2 μM K562
Method: as §1, §2
as §3, with “Cultures were incubated at 37° C. and 5% CO2 in a humidified atmosphere. After 24 h, 10 μl of test compounds or control medium are added and left on the cells for another 72 h.” left out
as §5

[7] = test system: SK-Mel-5 cell line; experiment: CellTiter-Glow cell viability, melanoma SK-Mel-5; conditions: for inhibition at 2 µM: Homo sapiens, SK-MEL-5, 72 h, read-out: % Inh @2 μM SK-Mel-5
Method: as §1, §2, §3, §4

[8] = test system: HCT116 cells; experiment: CellTiter-Glow cell viability, colon carcinoma HCT116; conditions: Homo sapiens, HCT-116, 72 h, read-out: % Inh @2 μM HCT116
Method: as §1, §2
as §3, with “Cultures were incubated at 37° C. and 5% CO2 in a humidified atmosphere. After 24 h, 10 μl of test compounds or control medium are added and left on the cells for another 72 h.” left out
as §5

[9] = test system: Daudi cells; experiment: CellTiter-Glow cell viability, lymphoma Daudi; conditions: Homo sapiens, 72 h, read-out: % Inh @2 μM Daudi
Method: as §1, §2, §3, §4

[10] = test system: MeWo cell line; experiment: CellTiter-Glow cell viability, melanoma MeWo; conditions: Homo sapiens, 72 h, read-out: growth inhibition of MeWo cell line
Method: as §1, §2
as §3, with “Cultures were incubated at 37° C. and 5% CO2 in a humidified atmosphere. After 24 h, 10 μl of test compounds or control medium are added and left on the cells for another 72 h.” left out
as §5

[11] = test system: A2058 cells; experiment: CellTiter-Glow cell viability, melanoma A2058; conditions: for inhibition at 2 µM: Homo sapiens, A2058, 72 h, read-out: % Inh @2 μM A2058
Method: as §1, §2, §3, §4

[12] = test system: A375 cells; experiment: CellTiter-Glow cell viability, melanoma A375; conditions: for inhibition at 2 µM: Homo sapiens, A-375, 72 h, read-out: % Inh @2 μM A375
Method: as §1, §2, §3, §4

[13] = test system: A673 cells; experiment: CellTiter-Glow cell viability, Ewings sarcoma A673; conditions: Homo sapiens, 72 h, read-out: % Inh @2 μM A673
Method: as §1, §2, §3, §4

[14] = test system: U937 cell line; experiment: CellTiter-Glow cell viability, leukemia U937; conditions: Homo sapiens, U-937, 72 h, read-out: growth inhibition of U937 cell line
Method: as §1, §2
as §3, with “Cultures were incubated at 37° C. and 5% CO2 in a humidified atmosphere. After 24 h, 10 μl of test compounds or control medium are added and left on the cells for another 72 h.” left out
as §5

[15] = test system: SH-SY-5Y cells; experiment: CellTiter-Glow cell viability, brain carcinoma SH-SY-5Y; conditions: Homo sapiens, SH-SY5Y, 72 h, read-out: % Inh @2 μM SH-SY-5Y
Method: as §1, §2
as §3, with “Cultures were incubated at 37° C. and 5% CO2 in a humidified atmosphere. After 24 h, 10 μl of test compounds or control medium are added and left on the cells for another 72 h.” left out
as §5

SMILES: COc1c(O)ccc2c(=O)c(O)c(-c3ccc(N(C)CCCCN(C)CCC4CCN(Cc5ccccc5)CC4)cc3)oc12 [SND437]
- inhibition at 2 µM [1]: 71.6%
- inhibition at 2 µM [2]: 98%
- inhibition at 2 µM [3]: 80.8%
- inhibition at 2 µM [4]: 97.6%
- inhibition at 2 µM [5]: 96.4%
- inhibition at 2 µM [6]: 65.3%
- inhibition at 2 µM [7]: 99.7%
- inhibition at 2 µM [8]: 83.7%
- inhibition at 2 µM [9]: 59.4%
- inhibition at 2 µM [10]: 93.2%
- inhibition at 2 µM [11]: 97.3%
- inhibition at 2 µM [12]: 69.5%
- inhibition at 2 µM [13]: 99.6%

SMILES: COc1c(O)ccc2c(=O)c(O)c(-c3ccc(N(C)CCCCN(C)CCN4CCN(Cc5ccccc5)CC4)cc3)oc12 [SND438]
- inhibition at 2 µM [1]: 51.9%
- inhibition at 2 µM [3]: 65.3%
- inhibition at 2 µM [5]: 53.5%
- % Inh @2 μM SK-Mel-5 ([7]; 72 h): 50.7%
- inhibition at 2 µM [7]: 61.1%
- inhibition at 2 µM [9]: 50%
- % Inh @2 μM A2058 ([11]; 72 h): 78.2%
- inhibition at 2 µM [11]: 72.1%
- % Inh @2 μM A375 ([12]; 72 h): 60.8%
- inhibition at 2 µM [12]: 55.5%
- inhibition at 2 µM [13]: 55.6%

SMILES: COc1c(O)ccc2c(=O)c(O)c(-c3ccc(N(C)CCCCN(C)CCCN4CCCCC4)cc3)oc12 [SND439]
- inhibition at 2 µM [1]: 62.6%
- inhibition at 2 µM [3]: 73.4%
- inhibition at 2 µM [5]: 57.5%
- inhibition at 2 µM [9]: 57.4%
- inhibition at 2 µM [13]: 80.8%

SMILES: COc1c(O)ccc2c(=O)c(O)c(-c3ccc(N(C)CCCCNCCCNCCCCN)cc3)oc12 [SND445]
- inhibition at 2 µM [13]: 61.8%

SMILES: COc1c(O)ccc2c(=O)c(O)c(-c3ccc(N(C)CCCCNCCCN)cc3)oc12 [SND446]
- inhibition at 2 µM [3]: 75.5%
- inhibition at 2 µM [14]: 58%
- inhibition at 2 µM [7]: 56.5%
- inhibition at 2 µM [9]: 82%
- inhibition at 2 µM [15]: 55.8%

SMILES: COc1c(-c2ccc(N(C)CCCCN(C)CCCN3CCCCC3)cc2)oc2c(OC)c(O)ccc2c1=O [SND459]
- inhibition at 2 µM [13]: 63.5%

From US20240051930A1, “HETEROAROMATIC SPERMIDINE ANALOGUES AND THEIR ANTICANCER ACTIVITY” (FLORATEK PHARMA S.A., priority 2021, published 2024)
